The text below walks through data of patent US20260042764A1, “COMPOSITIONS AND METHODS FOR INHIBITION OF KRAS” (TheRas, Inc., priority 2022, published 2026).

The target of assay [1] is T1, Avi-KRAS G12R (1-169) GppNHp/RAF1 RBD-3xFLAG (52-151) (Homo sapiens, UniProt P01116, G12R).
T1 construct: Avi-KRAS G12R (1-169)
Nature of the assay: Raf1-KRAS G12R-GppNHP disruption HTRF assay (Biological Example 1). The assay is classed as binding. The note with it: KRAS G12R, GppNHp-loaded; class symbols. In short, it runs like this:
(§1)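 HTRF PPI disruption; buffer 50 mM Tris pH 7.5, 100 mM NaCl, 5 mM MgCl2, 0.1% BSA, 0.01% Tween, 10% DMSO. Protein mix 1 h RT shaking, reagent mix 1 h RT shaking. Data as % activity vs DMSO (100%).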
(In general: Time-resolved FRET reads energy transfer from a long-lived donor to a nearby acceptor.)

Assay [2] addresses T2, Avi-KRAS WT (1-169) GppNHp/RAF1 RBD-3xFLAG (52-151) (Homo sapiens, UniProt P01116).
T2 construct: Avi-KRAS WT (1-169)
Nature of the assay: Raf1-KRAS WT-GppNHP disruption HTRF assay (Biological Example 1). Conditions: KRAS WT, GppNHp-loaded; class symbols. The assay is classed as binding. In short, it runs like this:
as §1

Assay [3] relates to SW620 cells (KRAS G12V). Nature of the assay: Cell-based pERK HTRF assay in SW620 cell (Biological Example 4). Conditions: Homo sapiens, SW-620, SW620 (KRAS G12V) cells, pERK HTRF; class symbols. In short, it runs like this: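 Read-out: HTRF pERK signal (excitation 320 nm, emission 615 nm) from lysates of SW620 cells after 4 h compound exposure. Dose range was 9 points, half-log steps from 1 μM, in 0.25% DMSO; antibody incubation ran 4–24 h at room temperature.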

Assay [4] deals with T3, Avi-KRAS G12D (1-169) GppNHp/RAF1 RBD-3xFLAG (52-151) (Homo sapiens, UniProt P01116, G12D).
T3 construct: Avi-KRAS G12D (1-169)
Nature of the assay: Raf1-KRAS G12D-GppNHP disruption HTRF assay (Biological Example 1). Format: binding. The note with it: KRAS G12D, GppNHp-loaded; class symbols. In short, it runs like this:
as §1

Assay [5] has as its target T4, Avi-KRAS G12V (1-169) GppNHp/RAF1 RBD-3xFLAG (52-151) (Homo sapiens, UniProt P01116, G12V).
T4 construct: Avi-KRAS G12V (1-169)
Nature of the assay: Raf1-KRAS G12V-GppNHP disruption HTRF assay (Biological Example 1). The note with it: KRAS G12V, GppNHp-loaded; class symbols. The assay is classed as binding. In short, it runs like this: as §1

Assay [6] relates to GP2d cells (KRAS G12D). Nature of the assay: Cell-based pERK HTRF assay in GP2d cell (Biological Example 2). The note with it: GP2d, GP2d (KRAS G12D) cells, pERK HTRF; class symbols. In short, it runs like this: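 60 min compound, 0.25% DMSO, 9-pt half-log curve from 1 μM or 100 nM; DMEM/10% FBS.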

Structures are written as SMILES.

T2 sequence (P01116 1-169 isoform P01116-2): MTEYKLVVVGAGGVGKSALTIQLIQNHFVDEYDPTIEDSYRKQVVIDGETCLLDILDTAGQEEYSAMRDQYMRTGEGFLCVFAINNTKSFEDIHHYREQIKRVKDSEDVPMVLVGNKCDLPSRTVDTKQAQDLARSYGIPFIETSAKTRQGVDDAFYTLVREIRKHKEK
T1 sequence (P01116 1-169 isoform P01116-2 G12R): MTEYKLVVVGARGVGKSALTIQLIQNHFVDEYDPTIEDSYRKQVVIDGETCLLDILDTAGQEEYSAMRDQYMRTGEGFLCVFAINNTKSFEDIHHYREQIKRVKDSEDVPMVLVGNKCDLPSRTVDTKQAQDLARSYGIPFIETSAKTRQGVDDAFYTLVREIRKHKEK
T4 sequence (P01116 1-169 isoform P01116-2 G12V): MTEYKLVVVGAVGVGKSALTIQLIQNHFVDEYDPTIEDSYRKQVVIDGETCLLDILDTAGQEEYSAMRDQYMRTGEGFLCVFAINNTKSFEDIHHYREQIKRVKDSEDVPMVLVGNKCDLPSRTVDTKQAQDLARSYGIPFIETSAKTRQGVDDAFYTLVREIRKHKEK
T3 sequence (P01116 1-169 isoform P01116-2 G12D): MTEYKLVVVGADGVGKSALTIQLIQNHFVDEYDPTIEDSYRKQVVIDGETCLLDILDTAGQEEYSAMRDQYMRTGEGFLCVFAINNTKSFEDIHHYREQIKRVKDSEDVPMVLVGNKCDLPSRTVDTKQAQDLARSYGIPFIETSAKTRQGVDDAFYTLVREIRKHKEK

As a reminder, the IC50 is the midpoint of a concentration-inhibition curve. Consider `CCN(c1nc(OC[C@@]23CCCN2C[C@H](F)C3)nc2c(F)c(-c3ccc(F)c4sc(N)c(C#N)c34)c(C(F)(F)F)cc12)[C@H]1CCN(C(=O)c2ccn(C)n2)C1` (atropisomer, axis not shown) [Compound 724], for which the concentration for half-maximal inhibition (IC50) in assay [1], in assay [2], in assay [3], in assay [4], in assay [5] and in assay [6] was less than 100 nM each time.

`CCN(c1nc(OC[C@@]23CCCN2C[C@H](F)C3)nc2c(F)c(-c3ccc(F)c4sc(N)c(C#N)c34)c(C(F)(F)F)cc12)[C@H]1CCN(C(=O)c2cn(C)nn2)C1` (atropisomer, axis not shown) [Compound 725]: the IC50 in assay [1], in assay [2], in assay [3], in assay [4], in assay [5] and in assay [6] was less than 100 nM in each case.

Consider `CCN(c1nc(OC[C@@]23CCCN2C[C@H](F)C3)nc2c(F)c(-c3ccc(F)c4sc(N)c(C#N)c34)c(C(F)(F)F)cc12)[C@H]1CCN(C(=O)c2cncnc2)C1` (atropisomer, axis not shown) [Compound 727], for which the IC50 is less than 100 nM in assay [1]; 100 to 1000 nM in assay [2]; less than 100 nM in assay [3]; less than 100 nM in assay [4]; 100 to 1000 nM in assay [5]; less than 100 nM in assay [6].

For the compound `CN(C)C(=O)N1CC[C@H]2[C@@H]1CN2c1nc(OC[C@@]23CCCN2C[C@H](F)C3)nc2c(F)c(-c3ccc(F)c4sc(N)c(C#N)c34)c(C(F)(F)F)cc12` (atropisomer, axis not shown) [Compound 728], the concentration for half-maximal inhibition (IC50) in assay [1] was in the range of 1000 to 10000 nM; in assay [2], 1000 to 10000 nM; in assay [3], 100 to 1000 nM; in assay [4], 1000 to 10000 nM; in assay [5], 1000 to 10000 nM; in assay [6], 100 to 1000 nM.

Turning to `CCN(c1nc(OC[C@@]23CCCN2C[C@H](F)C3)nc2c(F)c(-c3ccc(F)c4sc(N)c(C#N)c34)c(C(F)(F)F)cc12)[C@H]1CCN(C(=O)c2cnsc2)C1` (atropisomer, axis not shown) [Compound 729], the IC50 in assay [1], in assay [2], in assay [3], in assay [4], in assay [5] and in assay [6] was less than 100 nM throughout.

`CCN(c1nc(OC[C@@]23CCCN2C[C@H](F)C3)nc2c(F)c(-c3ccc(F)c4sc(N)c(C#N)c34)c(C(F)(F)F)cc12)[C@H]1CCN(C(=O)c2ccncn2)C1` (atropisomer, axis not shown) [Compound 730]: the IC50 in assay [1], in assay [2], in assay [3], in assay [4], in assay [5] and in assay [6] was less than 100 nM throughout.

Take `CCN(c1nc(OC[C@@]23CCCN2C[C@H](F)C3)nc2c(F)c(-c3ccc(F)c4sc(N)c(C#N)c34)c(C(F)(F)F)cc12)[C@H]1CCN(C(=O)c2cnnn2C)C1` (atropisomer, axis not shown) [Compound 733]: the IC50 is 100 to 1000 nM in assay [1]; 100 to 1000 nM in assay [2]; less than 100 nM in assay [3]; less than 100 nM in assay [4]; 100 to 1000 nM in assay [5]; less than 100 nM in assay [6].

`CCN(c1nc(OC[C@@]23CCCN2C[C@H](F)C3)nc2c(F)c(-c3ccc(F)c4sc(N)c(C#N)c34)c(C(F)(F)F)cc12)[C@H]1C[C@@H](C)N(C(=O)N2CC(OC)C2)C1` (atropisomer, axis not shown) [Compound 734]: the half-inhibitory concentration (IC50) in assay [1] was 100 to 1000 nM; in assay [2], 100 to 1000 nM; in assay [3], less than 100 nM; in assay [4] it was 100 to 1000 nM; in assay [5], 100 to 1000 nM; in assay [6] it was less than 100 nM.

Turning to `CCN(c1nc(OC[C@@]23CCCN2C[C@H](F)C3)nc2c(F)c(-c3ccc(F)c4sc(N)c(C#N)c34)c(C(F)(F)F)cc12)[C@H]1CCN(C(=O)[C@H]2CCCO2)C1` (atropisomer, axis not shown) [Compound 735], the concentration for half-maximal inhibition (IC50) in assay [1], in assay [2], in assay [3], in assay [4], in assay [5] and in assay [6] was less than 100 nM in each case.

`Cc1ccc(CN(C)c2nc(OC[C@@]34CCCN3C[C@H](F)C4)nc3c(F)c(-c4ccc(F)c5sc(N)c(C#N)c45)c(C(F)(F)F)cc23)c(N)n1` (atropisomer, axis not shown) [Compound 736]: the IC50 was 100 to 1000 nM in assay [1]; 1000 to 10000 nM in assay [2]; 100 to 1000 nM in assay [3]; 100 to 1000 nM in assay [4]; 100 to 1000 nM in assay [5]; less than 100 nM in assay [6].

With `CCN(c1nc(OC[C@@]23CCCN2C[C@H](F)C3)nc2c(F)c(-c3ccc(F)c4sc(N)c(C#N)c34)c(C(F)(F)F)cc12)[C@H]1C[C@H](C)N(C(=O)[C@H](C)OC)C1` (atropisomer, axis not shown) [Compound 739], the IC50 was less than 100 nM in assay [1]; less than 100 nM in assay [2]; less than 100 nM in assay [3]; less than 100 nM in assay [4]; 100 to 1000 nM in assay [5]; less than 100 nM in assay [6].

On to `CN(C)C(=O)N1CC[C@H](N(c2nc(OC[C@@]34CCCN3C[C@H](F)C4)nc3c(F)c(-c4ccc(F)c5sc(N)c(C#N)c45)c(C(F)(F)F)cc23)C2CC2)C1` (atropisomer, axis not shown) [Compound 743], for which the IC50 in assay [1] is 100 to 1000 nM; in assay [2], 100 to 1000 nM; in assay [3], less than 100 nM; in assay [4], 100 to 1000 nM; in assay [5], 100 to 1000 nM; in assay [6], less than 100 nM.

Turning to `CCN(c1nc(OC[C@@]23CCCN2C[C@H](F)C3)nc2c(F)c(-c3ccc(F)c4sc(N)c(C#N)c34)c(C(F)(F)F)cc12)[C@H]1CCN(C(=O)[C@@H]2CCCO2)C1` (atropisomer, axis not shown) [Compound 745], the IC50 in assay [1], in assay [2], in assay [3], in assay [4], in assay [5] and in assay [6] was less than 100 nM in each case.

As for `CCN(c1nc(OC[C@@]23CCCN2C[C@H](F)C3)nc2c(F)c(-c3ccc(F)c4sc(N)c(C#N)c34)c(C(F)(F)F)cc12)[C@H]1CCN(C(=O)[C@H](C)CO)C1` (atropisomer, axis not shown) [Compound 746], the IC50 in assay [1], in assay [2], in assay [3], in assay [4], in assay [5] and in assay [6] was less than 100 nM throughout.

Turning to `CCN(c1nc(OC[C@@]23CCCN2C[C@H](F)C3)nc2c(F)c(-c3ccc(F)c4sc(N)c(C#N)c34)c(C(F)(F)F)cc12)[C@H]1C[C@H](C)N(C(=O)[C@@H](C)OC)C1` (atropisomer, axis not shown) [Compound 747], the IC50 in assay [1] was 100 to 1000 nM; in assay [2], 100 to 1000 nM; in assay [3] it was less than 100 nM; in assay [4], 100 to 1000 nM; in assay [5] it was 100 to 1000 nM; in assay [6] it was less than 100 nM.

For `CCN(c1nc(OC[C@@]23CCCN2C[C@H](F)C3)nc2c(F)c(-c3ccc(F)c4sc(N)c(C#N)c34)c(C(F)(F)F)cc12)[C@H]1CCN(C(=O)c2cnn(C)c2)C1` (atropisomer, axis not shown) [Compound 748], the IC50 in assay [1], in assay [2], in assay [3], in assay [4], in assay [5] and in assay [6] was less than 100 nM throughout.

Take `CCN(c1nc(OC[C@@]23CCCN2C[C@H](F)C3)nc2c(F)c(-c3ccc(F)c4sc(N)c(C#N)c34)c(C(F)(F)F)cc12)[C@H]1CCN(C(=O)[C@H]2C[C@H]2F)C1` (atropisomer, axis not shown) [Compound 750]: the IC50 in assay [1], in assay [2], in assay [3], in assay [4], in assay [5] and in assay [6] was less than 100 nM in each case.
